According to paper PMC12498136, “Synthesis and biological evaluation of novel carnosic acid derivatives with anticancer activity” (RSC Advances, 2025):
Where two headings read alike, the source gives them in different places.

How the values were obtained:
HCT116 cells [1] = test: MTT cell viability assay in HCT116 cells; assay type: cell-based; conditions: for IC50: Homo sapiens, read-out: IC50 HCT116
Procedure: The MTT assay was used to assess the effect of the compounds on cell viability. […] Subsequently, the culture medium was switched with a new medium containing DMSO (control) or the compound at a specified concentration. […] The plates were then incubated for 1 h at 37 °C. After this time, the supernatant was aspirated, and the formazan crystals were dissolved in 100 μL of DMSO in each well. Relative cell viability was calculated by measuring absorbance at 570 nm using a Benchmark Plus Microplate Reader (Bio-Rad Laboratories, Hercules, CA, USA).

SW620 cells [2] = test: MTT cell viability assay in SW620 cells; assay type: cell-based; conditions: Homo sapiens, SW-620; MTT assay, 72 h incubation, mean ± SD; read-out: IC50 SW620
Procedure: (§1) The MTT assay was used to assess the effect of the compounds on cell viability. For this purpose, A375 (1500 cells per well), BJ (10 000 cells per well), Caco-2 (4000 cells per well), HCT116 (3000 cells per well), Mia Paca-2 (2000 cells per well), SW480 (6000 cells per well), and SW620 (8000 cells per well) cells were seeded in 96-well plates and incubated for 24 h. Subsequently, the culture medium was switched with a new medium containing DMSO (control) or the compound at a specified concentration. Following a 72 h incubation period, the supernatant was aspirated, and 100 μL of a mixture (1 : 1) of filtered MTT solution (1 mg per mL PBS) and FBS-free medium was added. The plates were then incubated for 1 h at 37 °C. After this time, the supernatant was aspirated, and the formazan crystals were dissolved in 100 μL of DMSO in each well. Relative cell viability was calculated by measuring absorbance at 570 nm using a Benchmark Plus Microplate Reader (Bio-Rad Laboratories, Hercules, CA, USA). Results are presented as the mean ± standard deviation (SD) of IC50 values, determined by nonlinear regression analysis of dose–response curves (log(inhibitor) vs. response with variable slope (four parameters)) using GraphPad Prism 9 software (GraphPad Software, San Diego, CA, USA).

Caco-2 cells = test: MTT cell viability assay in Caco-2 cells; assay type: cell-based; conditions: Homo sapiens, Caco-2; MTT assay, 72 h incubation, mean ± SD; read-out: IC50 Caco-2
Procedure: as §1

Mia Paca-2 cells [3] = test: MTT cell viability assay in Mia Paca-2 cells; assay type: cell-based; conditions: Homo sapiens, MIA PaCa-2; MTT assay, 72 h incubation, mean ± SD; read-out: IC50 Mia Paca-2
Procedure: as §1

HCT116 cells [4] = conditions: MTT assay, 72 h; previously determined by the research team, ref [26]; cited from earlier work
SW620 cells [5] = system: SW620 cells; parameters: method as in PMID 31909511; conditions: MTT assay, previously determined by the research team, ref [35]; cited from earlier work
Mia Paca-2 cells [6] = system: Mia Paca-2 cells; parameters: method as in PMID 18007390; conditions: MTT assay, from the literature, ref [37]; cited from earlier work
A375 cells [7] = system: A375 cells; parameters: method as in PMID 23229057; conditions: MTT assay, from the literature, ref [38]; cited from earlier work
BJ cells = system: BJ cells; parameters: method as in doi:10.1039/C5RA19120C; conditions: MTT assay, previously determined by the research team, ref [39]; read-out: IC50 BJ (non-tumoral); cited from earlier work
SW480 cells = test: MTT cell viability assay in SW480 cells; assay type: cell-based
Procedure: as §1

A375 cells [8] = test: MTT cell viability assay in A375 cells; assay type: cell-based; conditions: Homo sapiens, A-375; MTT assay, 72 h incubation, mean ± SD; read-out: IC50 A375
Procedure: as §1

[9] = HCT-116, MTT assay, 72 h incubation, mean ± SD
[10] = SW480 cells, ratio of IC50 values

Compound `CC(C)c1cc2c(c(O)c1O)[C@@]1(C(=O)O)CCCC(C)(C)[C@@H]1CC2` [CA 1, Carnosic acid] has an IC50 (HCT116 cells [1]; [9]) of 42 ± 4 µM, an IC50 (SW620 cells [2]) of 18 ± 2 µM and an IC50 (Caco-2 cells) of 34 ± 2 µM. For the same compound, the IC50 (Mia Paca-2 cells [3]) was 21 ± 1 µM.
In the case of `N.N.[Cl][Pt][Cl]` [Cisplatin], the IC50 (HCT116 cells [4]) is listed as 21 ± 1 µM, the IC50 (SW620 cells [5]) is listed as 1.4 ± 0.5 µM and the IC50 (Mia Paca-2 cells [6]) is listed as 5 ± 1 µM. For the same compound, the IC50 (A375 cells [7]) was 3 ± 1 µM and the IC50 (BJ cells) was 10 ± 2 µM.
Compound `CC(=O)Oc1c(C(C)C)cc2c(c1OC(C)=O)[C@@]1(C(=O)O)CCCC(C)(C)[C@@H]1CC2` [Compound 2, (4aR,10aS)-5,6-Bis(acetyloxy)-1,1-dimethyl-7-(propan-2-yl)1,3,4,9,10,10a-hexahydrophenanthrene-4a(2H)-carboxylic acid] has an IC50 (HCT116 cells [1]; [9]) of 44 ± 4 µM.
`CCOC(=O)[C@]12CCCC(C)(C)[C@@H]1CCc1cc(C(C)C)c(OC(C)=O)c(OC(C)=O)c12` [Compound 4, Ethyl(4aR,10aS)-5,6-bis(acetyloxy)-1,1-dimethyl-7-(propan-2-yl)-1,3,4,9,10,10a-hexahydrophenanthrene-4a(2H)-carboxylate] showed an IC50 (HCT116 cells [1]; HCT-116, 72 h) of 25 ± 2 µM.
`CCCCOC(=O)[C@]12CCCC(C)(C)[C@@H]1CCc1cc(C(C)C)c(OC(C)=O)c(OC(C)=O)c12` [Compound 5, Butyl(4aR,10aS)-5,6-bis(acetyloxy)-1,1-dimethyl-7-(propan-2-yl)-1,3,4,9,10,10a-hexahydrophenanthrene-4a(2H)-carboxylate] showed an IC50 (HCT116 cells [1]; [9]) of 26 ± 1 µM.
For `COC(=O)[C@]12CCCC(C)(C)[C@@H]1CC(=O)c1cc(C(C)C)c(OC(C)=O)c(OC(C)=O)c12` [Compound 6, Methyl(4aR,10aS)-5,6-bis(acetyloxy)-1,1-dimethyl-9-oxo-7-(propan-2-yl)-1,3,4,9,10,10a-hexahydrophenanthrene-4a(2H)-carboxylate], the IC50 (HCT116 cells [1]; [9]) was 36 ± 1 µM.
Compound `CCOC(=O)[C@]12CCCC(C)(C)[C@@H]1CC(=O)c1cc(C(C)C)c(OC(C)=O)c(OC(C)=O)c12` [Compound 7, Ethyl(4aR,10aS)-5,6-bis(acetyloxy)-1,1-dimethyl-9-oxo-7-(propan-2-yl)-1,3,4,9,10,10a-hexahydrophenanthrene-4a(2H)-carboxylate] has an IC50 (HCT116 cells [1]; [9]) of 31 ± 3 µM.
In the case of `CCCCOC(=O)[C@]12CCCC(C)(C)[C@@H]1CC(=O)c1cc(C(C)C)c(OC(C)=O)c(OC(C)=O)c12` [Compound 8, Butyl(4aR,10aS)-5,6-bis(acetyloxy)-1,1-dimethyl-9-oxo-7-(propan-2-yl)-1,3,4,9,10,10a-hexahydrophenanthrene-4a(2H)-carboxylate], the “fold more active than cisplatin” value (HCT116 cells [1]; HCT116 cells, ratio of IC50 values) is reported as 1.4 fold, the IC50 (HCT116 cells [1]; [9]) is reported as 15.1 ± 0.7 µM and the IC50 (SW480 cells; Homo sapiens, SW480, MTT assay, 72 h incubation, mean ± SD, read-out: IC50 SW480) is reported as 6.8 ± 0.6 µM. The “fold more active than cisplatin” value (SW480 cells; [10]) was 2.2 fold, the “fold more potent than CA 1” value (SW480 cells; [10]) was 3.2 fold and the IC50 (SW620 cells [2]) was 11 ± 1 µM. It also gave an IC50 (Caco-2 cells) of 12.7 ± 0.3 µM, an IC50 (Mia Paca-2 cells [3]) of 12 ± 1 µM and an IC50 (A375 cells [8]) of 8.1 ± 0.5 µM.
For `COC(=O)[C@]12CCCC(C)(C)[C@@H]1CC(O)c1cc(C(C)C)c(OC(C)=O)c(OC(C)=O)c12` (stereo partly drawn) [Compound 9, Methyl(4aR,10aS)-5,6-bis(acetyloxy)-9-hydroxy-1,1-dimethyl-7-(propan-2-yl)-1,3,4,9,10,10a-hexahydrophenanthrene-4a(2H)-carboxylate], the IC50 (HCT116 cells [1]; [9]) was 37 ± 3 µM.
`CCOC(=O)[C@]12CCCC(C)(C)[C@@H]1CC(O)c1cc(C(C)C)c(OC(C)=O)c(OC(C)=O)c12` (stereo partly drawn) [Compound 10, Ethyl(4aR,10aS)-5,6-bis(acetyloxy)-9-hydroxy-1,1-dimethyl-7-(propan-2-yl)-1,3,4,9,10,10a-hexahydrophenanthrene-4a(2H)-carboxylate] gave an IC50 (HCT116 cells [1]; [9]) of 34 ± 3 µM.
Work on `CCCCOC(=O)[C@]12CCCC(C)(C)[C@@H]1CC(O)c1cc(C(C)C)c(OC(C)=O)c(OC(C)=O)c12` (stereo partly drawn) [Compound 11, Butyl(4aR,10aS)-5,6-bis(acetyloxy)-9-hydroxy-1,1-dimethyl-7-(propan-2-yl)-1,3,4,9,10,10a-hexahydrophenanthrene-4a(2H)-carboxylate] yielded an IC50 (HCT116 cells [1]; [9]) of 27 ± 4 µM.
Work on `CC(=O)Oc1c(C(C)C)cc2c(c1OC(C)=O)[C@@]1(N=C=O)CCCC(C)(C)[C@@H]1CC2` [Compound 14, (4bR,8aS)-4b-Isocyanato-8,8-dimethyl-2-(propan-2-yl)-4b,5,6,7,8,8a,9,10-octahydrophenanthrene-3,4-diyl diacetate] yielded an IC50 (HCT116 cells [1]; HCT-116, 72 h) of 28 ± 3 µM.
`COC(=O)N[C@]12CCCC(C)(C)[C@@H]1CCc1cc(C(C)C)c(OC(C)=O)c(OC(C)=O)c12` [Compound 15, (4bR,8aS)-4b-[(Methoxycarbonyl)amino]-8,8-dimethyl-2-(propan-2-yl)-4b,5,6,7,8,8a,9,10-octahydrophenanthrene-3,4-diyl diacetate] showed an IC50 (HCT116 cells [1]; HCT-116, 72 h) of 55 ± 5 µM.
`CCOC(=O)N[C@]12CCCC(C)(C)[C@@H]1CCc1cc(C(C)C)c(OC(C)=O)c(OC(C)=O)c12` [Compound 16, (4bR,8aS)-4b-[(Ethoxycarbonyl)amino]-8,8-dimethyl-2-(propan-2-yl)-4b,5,6,7,8,8a,9,10-octahydrophenanthrene-3,4-diyl diacetate] gave an IC50 (HCT116 cells [1]; HCT-116, 72 h) of 37 ± 2 µM.
Compound `COC(=O)N[C@]12CCCC(C)(C)[C@@H]1CC(=O)c1cc(C(C)C)c(OC(C)=O)c(OC(C)=O)c12` [Compound 18, (4bR,8aS)-4b-[(Methoxycarbonyl)amino]-8,8-dimethyl-10-oxo-2-(propan-2-yl)-4b,5,6,7,8,8a,9,10-octahydrophenanthrene-3,4-diyl diacetate] has an IC50 (HCT116 cells [1]; HCT-116, 72 h) greater than 50 µM.
Compound `CCOC(=O)N[C@]12CCCC(C)(C)[C@@H]1CC(=O)c1cc(C(C)C)c(OC(C)=O)c(OC(C)=O)c12` [Compound 19, (4bR,8aS)-4b-[(Ethoxycarbonyl)amino]-8,8-dimethyl-10-oxo-2-(propan-2-yl)-4b,5,6,7,8,8a,9,10-octahydrophenanthrene-3,4-diyl diacetate] has an IC50 (HCT116 cells [1]; HCT-116, 72 h) of 48.2 ± 0.1 µM.
